Experimental data reported in US7232809B2, “Mitochondrially targeted antioxidants” (Antipodean Pharmaceuticals, Inc., priority 1997, dated 2007).

How the values were obtained:
rat brain homogenates = assay: Inhibition of lipid peroxidation in rat brain homogenates (TBARS assay); assay type: biochemical; settings: TBARS, read-out: concentration that inhibited oxidative stress by 50%
Procedure: The rat brain homogenates were incubated with or without various concentrations of the test compounds (compound 1; native Vitamin E (α-tocopherol), bromobutyl triphenylphosphonium bromide, Trolox (a water soluble form of Vitamin E) and compound 2, ie2-(2-bromoethyl)-3,4-dihydro-2,5,7,8-tetramethyl-2H-1-benzopyran-6-ol, the precursor of compound 1 (“Brom Vit E”)) and the oxidative damage occurring over the incubation was quantitated using the TBARS assay (Stocks et al., 1974, Clin Sci Mol Med 47,215–222). From this the concentration of compound required to inhibit oxidative damage by 50% was determined. In this system 210 nM compound 1 inhibited oxidative stress by 50% while the corresponding value for native Vitamin E was 36 nM. The value for bromobutyltriphenylphosphonium bromide, which contains the triphenylphosphonium moiety but not the antioxidant Vitamin E moiety was 47 μM. […] Further details of the experimental procedures and results are set out below.
(§1) The IC50 values for inhibition of lipid peroxidation were determined in rat brain homogenates, and are means±SEM or range of determinations on 2–3 brain preparations. Octan-1-ol/PBS partition coefficients are means±SEM for three independent determinations. N.D. not determined. Partition coefficients were determined by mixing 200 μM of the compound in 2 ml water-saturated octanol-1-ol with 2 ml octanol-saturated-PBS at room temperature for 1 h, then the two layers were separated by brief centrifugation and their concentrations determined spectrophotometrically from standard curves prepared in PBS or octanol. To measure antioxidant efficacy four rat brains were homogenised in 15 ml 40 mM potassium phosphate (pH 7.4), 140 mM NaCl at 4° C., particulate matter was pelleted (1,000×g at 4° C. for 15 min) and washed once and the combined supernatants stored frozen. Aliquots were rapidly thawed and 5 mg protein suspended in 800 μl PBS containing antioxidant or ethanol carrier and incubated at 37° C. for 30 min. Thiobarbituric acid reactive species (TBARS) were quantitated at 532 nm by adding 200 μl conc. HClO4 and 200 μl 1% thiobarbituric acid to the incubation, heating at 100° C. for 15 min and then cooling and clarification by centrifugation (10,000×g for 2 min).

[1] = Octan-1-ol/PBS partition coefficient; assay type: physicochemical; settings: 200 μM, room temperature, 1 h, means±SEM of three
Procedure: as §1

rat liver mitochondria [2] = assay: Protection of mitochondria against oxidative damage (TBARS, protein carbonyls); assay type: biochemical
Procedure: Mitochondria were exposed to oxidative stress by incubation with iron/ascorbate and the effect of compound 1 on oxidative damage assessed by measuring TBARS (filled bars) and protein carbonyls (open bars). Rat liver mitochondria (10 mg protein) were incubated at 25° C. in a shaking water bath in 2 ml medium containing 100 mM KCl, 10 mM Tris, pH 7.7, supplemented with rotenone (1.33 μg/ml), 10 mM succinate, 500 μM ascorbate and other additions. After preincubation for 5 min, 100 μM FeSO4 was added and 45–55 min later duplicate samples were removed and assayed for TBARS or protein carbonyls.
Energised rat liver mitochondria were exposed to tert-butylhydroperoxide and the effect of compound 1 (filled bars), α-tocopherol (open bars), compound 1+333 nM FCCP (stippled bars) or the simple lipophilic cation bromobutyl triphenylphosphonium (cross hatched bars) on TBARS formation determined.

rat liver mitochondria [3] = assay: Protection of mitochondrial function (membrane potential) from iron/ascorbate oxidative damage; assay type: biochemical; settings: 5 μM, compared with Vitamin E
Procedure: Energised rat liver mitochondria were incubated with iron/ascorbate with no additions (stippled bars), 5 μM compound 1 (filled bars), 5 μM α-tocopherol. (open bars) or 5 μM TPMP (cross hatched bars), and then isolated and the membrane potential generated by respiratory substrates measured relative to control incubations in the absence of iron/ascorbate. Rat liver mitochondria were incubated at 25° C. in a shaking water bath in 2 ml medium containing 100 mM KCl, 10 mM Tris, pH 7.7, supplemented with rotenone (1.33 μg/ml), 10 mM succinate, 500 μM ascorbate and other additions. […] TPMP either 10 mM glutamate and malate, 10 mM succinate and rotenone, or 5 mM ascorbate/100 μM TMPD with rotenone and myxothiazol (2 μg/ml), incubated at 25° C. for 3 min then pelleted and the membrane potential determined as above and compared with an incubation that had not been exposed to oxidative stress.

143B cells [4] = assay: Uptake of compound 1 by intact cells; assay type: cell-based, human
Procedure: The mitochondrial specific accumulation of compound 1 also occurs in intact cells. This was measured as described by Burns and Murphy, 1997 and the accumulation was prevented by dissipating both the mitochondrial and plasma membrane potentials. […] Therefore the accumulation of compound 1 into cells is driven by the mitochondrial membrane potential.
(§2) The next step was to determine whether compound 1 was accumulated by intact cells. […] A proportion of this uptake of compound 1 into cells was inhibited by blocking the plasma and mitochondrial membrane potentials (FIG. 9). This energisation-sensitive uptake corresponds to an intra mitochondrial concentration of compound 1 of about 2–4 mM, which is sufficient to protect mitochondria from oxidative damage.
Here 10^6 143B cells (closed symbols) or ρ° cells (open symbols) were incubated with 1 μM [3H] compound 1 and the compound 1 accumulation ratio determined. Human osteosarcoma 143B cells and a derived ρ° cell line lacking mitochondrial DNA were cultured in DMEM/10% FCS (foetal calf serum) supplemented with uridine and pyruvate under an atmosphere of 5% CO2/95% air at 37° C., grown to confluence and harvested for experiments by treatment with trypsin. To measure [^3H] compound 1 accumulation cells (10^6) were incubated in 1 ml HEPES-buffered DMEM. At the end of the incubation, cells were pelleted by centrifugation, the cell pellet and the supernatant prepared for scintillation counting and the accumulation ratio [compound 1/mg protein)/(compound 1/μl)]calculated.
Human osteosarcoma 143B cells were incubated in 1 ml HEPES-buffered DMEM with 1-50 μM compound 1 supplemented with 6–60 nCi/ml [^3H] compound 1. To determine the energistration-dependent uptake, parallel incubations with 12.5 μM oligomycin, 20 μM FCCP; 10 μM myxathiazol. 100 nM valinomycin and 1 mM ouabain were carried out. At the end of the incubation, cells were pelleted by centrifugation and prepared for scintillation counting and the energisation-sensitive uptake determined.

143B cells [5] = assay: Cell viability by lactate dehydrogenase release; assay type: cell-based, human; settings: 24 h, LDH release, concentrations giving 2–4 mM intramitochondrial
Procedure: as §2
Here, confluent 143B cells in 24 well tissue culture dishes were incubated with various concentrations of compound 1 for 24 h and cell viability measured by lactate dehydrogenase release.

rat liver mitochondria [6] = assay: Uptake of [3H] compound 1 by energised rat liver mitochondria
rat liver mitochondria [7] = assay: Effect of compound 1 on membrane potential and respiration rate of isolated mitochondria; settings: at the concentrations that afford protection
Procedure: TPMP at 25° C. for 3 min. After the incubation mitochondria were pelleted by centrifugation and the [^3H] TPMP in the supernatant and pellet quantitated by scintilation counting and the membrane potential calculated assuming a volume of 0.5 μl/mg proteins and that 60% of intramitochondrial TPMP is membrane bound.

- IC50 (rat brain homogenates): 210 nM
- Octanol:PBS partition coefficient [1]: 7.37 ± 1.56
- intra mitochondrial concentration from energisation-sensitive uptake (143B cells [4]; 143B cells, 1 h incubation): 2 to 4 mM
- accumulation by cells containing defective mitochondria (143B cells [4]; cells without mitochondrial membrane potential): not accumulated
- accumulation by intact cells (143B cells [4]; intact 143B cells): rapidly accumulated
- effect of uncoupler FCCP on accumulation into mitochondria (rat liver mitochondria [6]; addition of FCCP): blocked
- accumulation ratio into mitochondria (rat liver mitochondria [6]; energised rat liver mitochondria, membrane potential about 180 mV): about 6,000
- proportion membrane-bound within mitochondria (rat liver mitochondria [6]; inferred from uptake of TPMP and compound 1 at the same membrane potential): about 84%
- intramitochondrial concentration (rat liver mitochondria [6]; isolated mitochondria, range of concentrations of compound 1 (FIG. 2)): 4 to 8 mM
- slope of accumulation ratio of compound 1 relative to that of TPMP (rat liver mitochondria [6]; range of membrane potentials, 10 μM compound 1, 1 μM TPMP, 3 min): 2.472
Structure (SMILES): Cc1c(C)c2c(c(C)c1O)CCC(C)(CC[P+](c1ccccc1)(c1ccccc1)c1ccccc1)O2 (centres unmarked) [compound 1]
- protection of mitochondria against oxidative damage (lipid peroxidation and protein carbonyl formation) (rat liver mitochondria [2]; mitochondria exposed to oxidative stress): protected them against oxidative damage
- antioxidant protection with uncoupler FCCP (rat liver mitochondria [2]; mitochondria incubated with FCCP to prevent uptake): prevented
- protection of mitochondrial function (ability to generate a membrane potential) (rat liver mitochondria [3]): far more effectively than Vitamin E itself
- toxicity to cells (143B cells [5]): not toxic to cells
- time for reversal of accumulation by FCCP (rat liver mitochondria [6]; FCCP added after accumulation): < 10 s
- time for uptake into mitochondria (rat liver mitochondria [6]; energised rat liver mitochondria): < 10 s
- damage to mitochondria (rat liver mitochondria [7]): not damaging to mitochondria
